Assay results taken from patent US5672715A, “Herbicidal substituted 3-aryl-pyrazoles” (Monsanto Company, priority 1995, dated 1997).

What was measured:
Type in all cases: in vivo
Velvetleaf [1] = assay: post-emergence herbicide test; conditions: Abutilon theophrasti, post-emergence, 0.25 lb/A; read-out: % plant inhibition
Outline: (§1)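 Each pan is moved to a spraying chamber when plants are two to three weeks old and sprayed by atomizer at 10 psig, delivering 1870 L/Ha containing about 0.4% by volume emulsifier. Greenhouse-grown from seed; percent inhibition scored.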

Cocklebur [2] = assay: post-emergence herbicide test; conditions: Xanthium strumarium, post-emergence, 0.25 lb/A; read-out: % plant inhibition
Outline: as §1

Seedling Johnsongrass [3] = assay: post-emergence herbicide test; conditions: Sorghum halepense, post-emergence, 0.25 lb/A; read-out: % plant inhibition
Outline: as §1

Corn [4] = assay: post-emergence herbicide test; conditions: Zea mays, post-emergence, 0.25 lb/A; read-out: % plant inhibition
Outline: as §1

Soybean [5] = assay: post-emergence herbicide test; conditions: Glycine max, post-emergence, 0.25 lb/A; read-out: % plant inhibition
Outline: as §1

Giant Foxtail [6] = assay: post-emergence herbicide test; conditions: Setaria faberi, post-emergence, 0.25 lb/A; read-out: % plant inhibition
Outline: as §1

Green Foxtail [7] = assay: post-emergence herbicide test; conditions: Setaria viridis, post-emergence, 0.25 lb/A; read-out: % plant inhibition
Outline: as §1

Morning Glory [8] = assay: post-emergence herbicide test; conditions: Ipomoea, post-emergence, 0.25 lb/A; read-out: % plant inhibition
Outline: as §1

Birdseye Speedwell [9] = assay: post-emergence herbicide test; conditions: post-emergence, 0.25 lb/A; read-out: % plant inhibition
Outline: as §1

Bedstraw Catchweed [10] = assay: post-emergence herbicide test; conditions: Galium aparine, post-emergence, 0.25 lb/A; read-out: % plant inhibition
Outline: as §1

Blackgrass [11] = assay: post-emergence herbicide test; conditions: Alopecurus myosuroides, post-emergence, 0.25 lb/A; read-out: % plant inhibition
Outline: as §1

Wheat [12] = assay: post-emergence herbicide test; conditions: Triticum aestivum, post-emergence, 0.25 lb/A; read-out: % plant inhibition
Outline: as §1

Common Chickweed [13] = assay: post-emergence herbicide test; conditions: post-emergence, 0.25 lb/A; read-out: % plant inhibition
Outline: as §1

Wild Oats [14] = assay: post-emergence herbicide test; conditions: Avena fatua, post-emergence, 0.25 lb/A; read-out: % plant inhibition
Outline: as §1

Rape [15] = assay: post-emergence herbicide test; conditions: post-emergence, 0.25 lb/A; read-out: % plant inhibition
Outline: as §1

Barnyardgrass [16] = assay: post-emergence herbicide test; conditions: Echinochloa crus-galli, post-emergence, 0.25 lb/A; read-out: % plant inhibition
Outline: as §1

Downy Brome [17] = assay: post-emergence herbicide test; conditions: Bromus tectorum, post-emergence, 0.25 lb/A; read-out: % plant inhibition
Outline: as §1

Velvetleaf [18] = assay: pre-emergence herbicide test; conditions: Abutilon theophrasti, pre-emergence, 0.25 lb/A; read-out: % plant inhibition
Outline: (§2)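 Sown seeds covered with dosed topsoil; carrier acetone or water; greenhouse, watered from below, optional 1/4 in overhead irrigation post-treatment; % inhibition at ~14 d.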

Cocklebur [19] = assay: pre-emergence herbicide test; conditions: Xanthium strumarium, pre-emergence, 0.25 lb/A; read-out: % plant inhibition
Outline: as §2

Seedling Johnsongrass [20] = assay: pre-emergence herbicide test; conditions: Sorghum halepense, pre-emergence, 0.25 lb/A; read-out: % plant inhibition
Outline: as §2

Corn [21] = assay: pre-emergence herbicide test; conditions: Zea mays, pre-emergence, 0.25 lb/A; read-out: % plant inhibition
Outline: as §2

Soybean [22] = assay: pre-emergence herbicide test; conditions: Glycine max, pre-emergence, 0.25 lb/A; read-out: % plant inhibition
Outline: as §2

Giant Foxtail [23] = assay: pre-emergence herbicide test; conditions: Setaria faberi, pre-emergence, 0.25 lb/A; read-out: % plant inhibition
Outline: as §2

Green Foxtail [24] = assay: pre-emergence herbicide test; conditions: Setaria viridis, pre-emergence; 0.25 lb/A; read-out: % plant inhibition
Outline: as §2

Morning Glory [25] = assay: pre-emergence herbicide test; conditions: Ipomoea, pre-emergence, 0.25 lb/A; read-out: % plant inhibition
Outline: as §2

Birdseye Speedwell [26] = assay: pre-emergence herbicide test; conditions: pre-emergence, 0.25 lb/A; read-out: % plant inhibition
Outline: as §2

Bedstraw Catchweed [27] = assay: pre-emergence herbicide test; conditions: Galium aparine, pre-emergence, 0.25 lb/A; read-out: % plant inhibition
Outline: as §2

Blackgrass [28] = assay: pre-emergence herbicide test; conditions: Alopecurus myosuroides, pre-emergence, 0.25 lb/A; read-out: % plant inhibition
Outline: as §2

Wheat [29] = assay: pre-emergence herbicide test; conditions: Triticum aestivum, pre-emergence, 0.25 lb/A; read-out: % plant inhibition
Outline: as §2

Common Chickweed [30] = assay: pre-emergence herbicide test; conditions: pre-emergence, 0.25 lb/A; read-out: % plant inhibition
Outline: as §2

Wild Oats [31] = assay: pre-emergence herbicide test; conditions: Avena fatua, pre-emergence, 0.25 lb/A; read-out: % plant inhibition
Outline: as §2

Rape [32] = assay: pre-emergence herbicide test; conditions: pre-emergence, 0.25 lb/A; read-out: % plant inhibition
Outline: as §2

Barnyardgrass [33] = assay: pre-emergence herbicide test; conditions: Echinochloa crus-galli, pre-emergence, 0.25 lb/A; read-out: % plant inhibition
Outline: as §2

Downy Brome [34] = assay: pre-emergence herbicide test; conditions: Bromus tectorum, pre-emergence, 0.25 lb/A; read-out: % plant inhibition
Outline: as §2

SMILES | inhibition at 280.212 g/ha (Velvetleaf [1]) [%] | inhibition at 280.212 g/ha (Cocklebur [2]) [%] | inhibition at 280.212 g/ha (Seedling Johnsongrass [3]) [%] | inhibition at 280.212 g/ha (Corn [4]) [%] | inhibition at 280.212 g/ha (Soybean [5]) [%] | inhibition at 280.212 g/ha (Giant Foxtail [6]) [%] | inhibition at 280.212 g/ha (Green Foxtail [7]) [%] | inhibition at 280.212 g/ha (Morning Glory [8]) [%] | inhibition at 280.212 g/ha (Birdseye Speedwell [9]) [%] | inhibition at 280.212 g/ha (Bedstraw Catchweed [10]) [%] | inhibition at 280.212 g/ha (Blackgrass [11]) [%] | inhibition at 280.212 g/ha (Wheat [12]) [%] | inhibition at 280.212 g/ha (Common Chickweed [13]) [%] | inhibition at 280.212 g/ha (Wild Oats [14]) [%] | inhibition at 280.212 g/ha (Rape [15]) [%] | inhibition at 280.212 g/ha (Barnyardgrass [16]) [%] | inhibition at 280.212 g/ha (Downy Brome [17]) [%] | inhibition at 280.212 g/ha (Velvetleaf [18]) [%] | inhibition at 280.212 g/ha (Cocklebur [19]) [%] | inhibition at 280.212 g/ha (Seedling Johnsongrass [20]) [%] | also measured
Cc1c(-c2cc(C(=O)OCc3ccccc3)c(Cl)cc2F)nn(C)c1C(F)(F)F [Compound 41] | 99 | 95 | 70 | 35 | 15 | 5 | 90 | 75 | 100 | 100 | 20 | 15 | 98 | 20 | 40 | 65 | 30 | 90 | 25 | 50 | inhibition at 280.212 g/ha (Corn [21]): 0%; inhibition at 280.212 g/ha (Soybean [22]): 0%; inhibition at 280.212 g/ha (Giant Foxtail [23]): 40%; inhibition at 280.212 g/ha (Green Foxtail [24]): 100%; inhibition at 280.212 g/ha (Morning Glory [25]): 0%; inhibition at 280.212 g/ha (Birdseye Speedwell [26]): 100%; inhibition at 280.212 g/ha (Bedstraw Catchweed [27]): 60%; inhibition at 280.212 g/ha (Blackgrass [28]): 15%; inhibition at 280.212 g/ha (Wheat [29]): 3%; inhibition at 280.212 g/ha (Common Chickweed [30]): 55%; inhibition at 280.212 g/ha (Wild Oats [31]): 10%; inhibition at 280.212 g/ha (Rape [32]): 5%; inhibition at 280.212 g/ha (Barnyardgrass [33]): 50%; inhibition at 280.212 g/ha (Downy Brome [34]): 30%
C#CCOC(=O)c1cc(-c2nn(C)c(C(F)(F)F)c2C)c(F)cc1Cl [Compound 42] | 98 | 85 | 45 | 25 | 10 | 0 | 40 | 70 | 95 | 100 | 20 | 15 | 95 | 20 | 40 | 65 | 30 | 65 | 65 | 0 | inhibition at 280.212 g/ha (Corn [21]): 5%; inhibition at 280.212 g/ha (Soybean [22]): 0%; inhibition at 280.212 g/ha (Giant Foxtail [23]): 0%; inhibition at 280.212 g/ha (Green Foxtail [24]): 95%; inhibition at 280.212 g/ha (Morning Glory [25]): 60%; inhibition at 280.212 g/ha (Birdseye Speedwell [26]): 30%; inhibition at 280.212 g/ha (Bedstraw Catchweed [27]): 80%; inhibition at 280.212 g/ha (Blackgrass [28]): 15%; inhibition at 280.212 g/ha (Wheat [29]): 0%; inhibition at 280.212 g/ha (Common Chickweed [30]): 40%; inhibition at 280.212 g/ha (Wild Oats [31]): 5%; inhibition at 280.212 g/ha (Rape [32]): 5%; inhibition at 280.212 g/ha (Barnyardgrass [33]): 35%; inhibition at 280.212 g/ha (Downy Brome [34]): 10%
Cc1c(-c2cc(C(=O)OCC(=O)c3ccccc3)c(Cl)cc2F)nn(C)c1C(F)(F)F [Compound 43] | 80 | 85 | 25 | 7 | 15 | 0 | 20 | 75 | 100 | 30 | 10 | 10 | 65 | 15 | 25 | 5 | 10 | 65 | 45 | 35 | inhibition at 280.212 g/ha (Corn [21]): 0%; inhibition at 280.212 g/ha (Soybean [22]): 0%; inhibition at 280.212 g/ha (Giant Foxtail [23]): 15%; inhibition at 280.212 g/ha (Green Foxtail [24]): 60%; inhibition at 280.212 g/ha (Morning Glory [25]): 10%; inhibition at 280.212 g/ha (Birdseye Speedwell [26]): 60%; inhibition at 280.212 g/ha (Bedstraw Catchweed [27]): 20%; inhibition at 280.212 g/ha (Blackgrass [28]): 10%; inhibition at 280.212 g/ha (Wheat [29]): 0%; inhibition at 280.212 g/ha (Common Chickweed [30]): 55%; inhibition at 280.212 g/ha (Wild Oats [31]): 5%; inhibition at 280.212 g/ha (Rape [32]): 5%; inhibition at 280.212 g/ha (Barnyardgrass [33]): 15%; inhibition at 280.212 g/ha (Downy Brome [34]): 5%
